# Assay results taken from patent publication EP0751957B1, “PEPTIDE FRAGMENTS OF MICROBIAL STRESS PROTEINS AND PHARMACEUTICAL COMPOSITION MADE THEREOF FOR THE TREATMENT AND PREVENTION OF INFLAMMATORY DISEASES” (priority 1994, dated 2004).
# Tests used:
# Type in all cases: cell-based, Lewis rats
# [1] = test system: primed lymph node cells (PLNC); test: T cell proliferation assay, PLNC from peptide-immunised rats; conditions: PLNC 10 days after immunisation with peptide 176-190 (100 µg/DDA); in vitro peptide 20 µg/ml
# Experimental: (§1) Immunisations with synthetic peptides and primed lymph node populations: Rats were immunised with 50 µg of synthetic peptide in PBS/DDA in each hind footpad (i.e. 50 µg/footpad, 100 µg/rat). Ten days later, draining popliteal lymph nodes were removed, disaggregated, washed three times and used as a source of primed lymph node cells (PLNC). In some experiments, PLNC were derived as pooled inguinal and popliteal lymph nodes from AA rats 35-42 days post Mt immunisation.
# (§2) T cell proliferation assays: PLNC were cultured in triplicate in 200 µl flat bottom microtitre wells (Costar) at 2 x 10^5 cells per well with or without antigen. In initial experiments PLNC were tested for responsiveness to individual peptides at concentrations of 5 and 20 µg/ml, and Mt, hsp65 and PPD over a range of concentrations. Concanavalin A (2 µg/ml) was used as a positive control for T cell proliferation. Cultures were incubated for 96 h at 37°C in a humidified atmosphere of 5% CO2. Cultures were pulsed for the final 16 h with [^3H] TdR (Amersham, U.K., 1 uCi/well) and TdR uptake measured using a liquid scintillation β counter. Assays using T cell lines were performed as above using 2 x 10^4 line cells per well with irradiated (30 Gy) syngeneic accessory cells (either 3 x 10^5 splenocytes/well or 10^6 thymocytes/well). Results are expressed as mean counts per minute (cpm) of triplicate cultures. In experiments where responses to Ag were low, responses were considered significant if the stimulation index (S.I. = […]) was greater than two and Student's t tests gave p < 0.01.
# To determine whether immunisation of rats with synthetic peptides was effective at priming for T cell reactivity to hsp65 epitopes, in vitro proliferative responses following immunisation with 100 µg of peptide each containing individual T cell epitopes were examined. PLNC isolated ten days after immunisation were tested for response to the immunising peptide, overlapping peptides and to hsp65 (Table II). PLNC responses were observed after immunisation with seven of the nine peptides. Responses were not seen after immunisation with peptides 386-400 and 511-525.
# T cell responses by immunisation with hsp65 peptides. Rats were immunised with synthetic peptides containing individual hsp65 epitopes (100 µg peptide/DDA per rat). Ten days later PLNC were isolated and tested for responses to overlapping peptides (20 µg/ml). Peptide-specific T cell lines were generated by bulk in vitro stimulation of PLNC with immunising peptide. Lines were tested for responses to overlapping peptides (10 µg/ml). […] Results are expressed as mean cpm of triplicate cultures. All SEM were less than 20%.
# [2] = test system: hsp65-specific T cell line; test: T cell proliferation assay, hsp65-specific T cell line; conditions: short term lines from ten day hsp65-PLNC, seven days after first restimulation
# Experimental: as §2
# T cell lines: T cell lines with specificity for mycobacterial hsp65 or peptides were generated by bulk stimulation of either hsp65-PLNC or Mt-PLNC. PLNC were cultured at 5 x 10^6/ml in culture medium supplemented with 2% normal rat serum (NRS) in the presence of 10 µg/ml Ag. […]
# [3] = test system: Mt-PLNC; test: T cell proliferation assay, Mt-PLNC; conditions: PLNC from rats immunised with Mt mixed with DDA
# Experimental: Immunisations and primed lymph node populations: Rats were immunised with either Mt or hsp65. Mt was suspended at 5 mg/ml in IFA or DDA and 100 µl injected in each hind footpad (i.e. 500 µg/footpad, 1 mg/rat). Hsp65 (1 mg/ml in PBS) was mixed 1:1 with DDA and 100 µl injected (i.e. 50 µg/footpad, 100 µg/rat). Ten to 21 days later, draining popliteal lymph nodes were removed, disaggregated, washed three times and used as a source of primed lymph node cells (PLNC). In control experiments splenocytes and lymph nodes from unimmunised rats and PLNC from rats immunised with IFA or DDA/PBS alone were used.
# T cell proliferation assays: PLNC were cultured in triplicate in 200 µl flat bottom microtitre wells (Costar) at 2 x 10^5 cells per well with or without antigen. In initial experiments PLNC were tested for responsiveness to individual peptides at concentrations of 5 and 20 µg/ml, and Mt, hsp65 and PPD over a range of concentrations. Concanavalin A (2 µg/ml) was used as a positive control for T cell proliferation. Cultures were incubated for 96 h at 37°C in a humidified atmosphere of 5% CO2. Cultures were pulsed for the final 16 h with [^3H] TdR (Amersham, U.K., 1 uCi/well) and TdR uptake measured using a liquid scintillation β counter. […] Results are expressed as mean counts per minute (cpm) of triplicate cultures. […]
# [4] = test system: PLNC from preimmunised rats; test: T cell proliferation assay, PLNC of peptide-preimmunised AA rats 42 days after Mt; conditions: 42 days after Mt administration
# Experimental: as §1, §2
# PLNC from preimmunised rats were tested for responsiveness to hsp65 epitopes 42 days after Mt administration (Fig. 8). […] Responses to peptide 176-190 containing the AA-associated epitope were found in all PLNC populations (and enhanced after 176-190 preimmunisation) with one exception.
substance,measurement,setting,value
peptide 176-190: synthetic 15mer of mycobacterial hsp65 containing the AA-associated epitope 180-188,CPM PLNC,[1],57707 cpm
same,hsp65-specific T cell line response to peptide,[2],strong responses
same,Mt/DDA-PLNC response to hsp65 peptide,[3],dominant
same,"PLNC response to peptide, rats preimmunised with PBS/DDA alone",[4],significant responses
same,"PLNC response to peptide, rats preimmunised with peptide 256-270",[4]; rats protected from AA,total lack of response
